Data reported in US20090123581A1, “COLLAGEN CROSS-LINKING AGENTS ON DENTAL RESTORATIVE TREATMENT AND PREVENTIVE DENTISTRY” (THE BOARD OF TRUSTEES OF THE UNIVERSITY OF ILLINOIS, priority 2006, published 2009).

Legend:
Set-up in all cases: species or system human
[1] = Ultimate tensile strength (UTS) of demineralized dentin after cross-linker treatment (Example 1); conditions: for Ultimate tensile strength, mean: pH 7.4
Source text: (§1) Fixation Processes: Ten sound freshly extracted human molars were used in this study. The teeth were thawed, cleaned of adhering soft tissues, and the occlusal surfaces were ground flat with #320 grit Silicon Carbide paper under running water to remove part of the enamel. Flattening of the occlusal surface by removal of the cusps enables accurate sectioning of samples in beam shape. Teeth were sectioned into 0.5±0.1 by 0.5±0.1 mm thick beams (n=20 beams per tooth) with a slow speed diamond wafering blade (Buehler-Series 15LC Diamond, Lake Bluff, Ill., USA) under constant water coolant (FIG. 1A).
(§2) The slabs were randomly divided into two groups: 1) undemineralized dentin and 2) demineralized dentin (FIG. 1A). In Group 2, dentin beams were immersed in 10% phosphoric acid solution (Fisher Scientific, New Jersey, N.J.) for a period of 5 hours. X-rays were taken from the specimens to verify complete tissue demineralization. Specimens were thoroughly rinsed with distilled water for 10 minutes to remove any residue of the phosphoric acid.
(§3) Specimens from groups 1 and 2 were subdivided according to the dentin treatment (FIG. 1B). In Treatment A, specimens were immersed in PBS solution (pH: 7.4) as a control. In Treatment B, specimens were immersed in 0.5% Proanthocyanidin (MegaNatural—Polyphenolics Ind.) PBS solution (PA) at a pH of 7.4. In Treatment C, specimens were immersed in 0.625% Genipin (Wako Pure Chemical Ind.) PBS solution (GE) at a pH of 7.4. In Treatment D, specimens were immersed in 5% glutaraldehyde solution (GD) (Fisher Scientific, New Jersey, N.J.) at a pH of 7.4. Specimens were kept in their respective solutions for 4 and 40 hours at room temperature. After the incubation periods, specimens were thoroughly rinsed with distilled and deionized water to remove any remains of cross-linking agents and buffer.
(§4) UTS testing: For UTS evaluation, the specimens were glued with a cyanoacrylate adhesive (Zapit—Dental Ventures of America Inc., Corona, Calif.) to a Ciucchi's jig, which was mounted on a universal testing machine (EZ Test, Shimazu Co., Kyoto, Japan) and subjected to microtensile testing at a crosshead speed of 1 mm/min (FIG. 1C). Means and standard deviations were calculated and expressed in microtensile bond strengths (MPa). Statistical analysis was performed using a two-way ANOVA and Fisher's PLSD tests (p<0.05).

[2] = Modulus of elasticity of demineralized dentin, 3-point bend method (Example 3); conditions: for modulus of elasticity, pooled data: pooled over all times (baseline to 4 h)
Source text: Twelve sound extracted human molars were used. The teeth were thawed, cleaned of adhering soft tissues, and the occlusal surfaces were ground flat with #320 grit silicon carbide abrasive paper under running water to remove part of the enamel (Buehler, Lake Bluff, Ill.). Flattening of the occlusal surface by cusp removal enables more accurate sectioning of samples. The root portion was sectioned 1 mm below the CEJ and discarded. Teeth were sectioned into 0.5±0.1 mm thick beams (n=5 beams per tooth) in the mesio-buccal direction with a slow speed diamond wafering blade (Buehler-Series 15LC Diamond) under constant water irrigation (FIG. 1A). The sections were further trimmed using a cylindrical diamond bur (#557D, Brasseler, Savannah, Ga.) in a high speed handpiece, to a final rectangular dimension of 0.5 mm thickness×1.7 mm width×7.0 mm length. A dimple was made at one end of the surfaces to allow for repeated measurements to be performed on the same surface (FIG. 1A).
Specimens were immersed in 10% phosphoric acid solution (LabChem Inc, Pittsburgh, Pa.) for a period of 5 hours and thoroughly rinsed with distilled water for 10 minutes. X-rays were taken of the specimens to verify complete tissue demineralization. Demineralized specimens were randomly divided into the following groups according to dentin treatment (FIG. 1B): 2.5% glutaraldehyde (Fisher Biotech, Fair Lawn, N.J.) in PBS (pH: 7.4); 5% glutaraldehyde in PBS (pH: 7.4); 25% glutaraldehyde in PBS (pH: 7.4); 0.65% grape seed extract (Mega-Natural—Polyphenolics Ind., Madera, Calif.) in PBS (pH: 7.4); and 6.5% grape seed extract in PBS solution (pH: 7.4). Specimens were immersed in water for baseline measurements and then in their respective solutions for 10 min, 30 min, 1 hour, 2 hour and 4 hours of cumulative exposure (FIG. 1C).
The 3-point bend method was selected for evaluation of the modulus of elasticity. The advantages of this method are that it requires no gripping of these small specimens and that it is non-destructive and therefore permits repeated measurements to be performed (FIG. 1C). An aluminum alloy fixture with a 5.0 mm span between supports was glued to the bottom of a glass Petri dish. Specimens were tested in compression while immersed in liquid using a Vitrodyne testing machine (Model V-1000, Chatillon, Greensboro, N.C.) with a 50 grams load cell at crosshead speed of 0.5 mm/min. Load-displacement curves were converted to stress-strain curves and the apparent modulus of elasticity calculated at 3% strain. Displacement (D) during compression was calculated at a maximum strain of 3% using the following formula (Nielsen L E. Mechanical properties of polymers and composites. Vol. 1, New York: Marcel Dekker Inc., 1974, p. 45.):
Where ε is strain, L is support span and T is thickness of the specimen.
Then the modulus of elasticity (É) of the specimens was calculated using the following formula (Nielsen, 1974): […]
Where P is the maximum load, L is the support span, D is the displacement, b width of the specimen and T is the thickness of the specimen.
Baseline measurements were obtained with specimens immersed in distilled water. All experimental periods were evaluated with the samples immersed in their respective cross-linking agents. A total of 10-12 specimens were evaluated per group. The data were collected and statistically analyzed using a General Linear Model SPSS program for ANOVA repeated measurements at a 95% confidence interval.

[3] = Ultimate tensile strength (UTS) of undemineralized (mineralized) dentin after cross-linker treatment (Example 1); conditions: 0.625% GE or 5% GD; for Ultimate tensile strength, mean: pH 7.4
Source text: as §1, §2, §3, §4

Question: Which “Ultimate tensile strength, mean” value ([1]; 4 hours in 0.5% PA, 0.625% GE or 5% GD) does the source give for `O=CCCCC=O` [GD, glutaraldehyde] here?
Answer: 13.1 MPa

Question: What about the “Ultimate tensile strength, mean” value ([1]; 40 hours in 0.5% PA, 0.625% GE or 5% GD) of the same molecule?
Answer: 9.1 MPa

Question: What about the “Ultimate tensile strength, pooled data” value ([1]; pooled over 4 and 40 hours, 0.5% PA, 0.625% GE or 5% GD) of the same molecule?
Answer: 11.1 BC MPa

Question: What about the “UTS values compared to the control group (statistics)” value ([1]; two-way ANOVA, Fisher's PLSD) of the same molecule?
Answer: no statistically significant differences

Question: And the modulus of elasticity ([2]; 2.5% GD group, Baseline (in distilled water, before exposure))?
Answer: 4.82 MPa

Question: And the modulus of elasticity ([2]; 2.5% GD in PBS pH 7.4, 10 min cumulative exposure)?
Answer: 20.45 MPa

Question: And the modulus of elasticity ([2]; 2.5% GD in PBS pH 7.4, 30 min cumulative exposure)?
Answer: 30.22 MPa

Question: And the modulus of elasticity ([2]; 2.5% GD in PBS pH 7.4, 1 h cumulative exposure)?
Answer: 32.10 MPa

Question: And the modulus of elasticity ([2]; 2.5% GD in PBS pH 7.4, 2 h cumulative exposure)?
Answer: 34.44 MPa

Question: And the modulus of elasticity ([2]; 2.5% GD in PBS pH 7.4, 4 h cumulative exposure)?
Answer: 34.86 MPa

Question: What about the “modulus of elasticity, pooled data” value ([2]; 2.5% GD) of the same molecule?
Answer: 26.15 A MPa

Question: What about the modulus of elasticity ([2]; 5% GD group, Baseline (in distilled water, before exposure)) of the same molecule?
Answer: 5.97 MPa

Question: What about the modulus of elasticity ([2]; 5% GD in PBS pH 7.4, 10 min cumulative exposure) of the same molecule?
Answer: 18.37 MPa

Question: And the modulus of elasticity ([2]; 5% GD in PBS pH 7.4, 30 min cumulative exposure)?
Answer: 27.25 MPa

Question: What about the modulus of elasticity ([2]; 5% GD in PBS pH 7.4, 1 h cumulative exposure) of the same molecule?
Answer: 29.77 MPa

Question: And the modulus of elasticity ([2]; 5% GD in PBS pH 7.4, 2 h cumulative exposure)?
Answer: 33.08 MPa

Question: And the modulus of elasticity ([2]; 5% GD in PBS pH 7.4, 4 h cumulative exposure)?
Answer: 38.14 MPa

Question: And the “modulus of elasticity, pooled data” value ([2]; 5% GD)?
Answer: 25.43 A MPa

Question: What about the modulus of elasticity ([2]; 25% GD group, Baseline (in distilled water, before exposure)) of the same molecule?
Answer: 5.32 MPa

Question: What about the modulus of elasticity ([2]; 25% GD in PBS pH 7.4, 10 min cumulative exposure) of the same molecule?
Answer: 32.26 MPa

Question: And the modulus of elasticity ([2]; 25% GD in PBS pH 7.4, 30 min cumulative exposure)?
Answer: 37.83 MPa

Question: What about the modulus of elasticity ([2]; 25% GD in PBS pH 7.4, 1 h cumulative exposure) of the same molecule?
Answer: 41.31 MPa

Question: What about the modulus of elasticity ([2]; 25% GD in PBS pH 7.4, 2 h cumulative exposure) of the same molecule?
Answer: 41.21 MPa

Question: What about the modulus of elasticity ([2]; 25% GD in PBS pH 7.4, 4 h cumulative exposure) of the same molecule?
Answer: 42.80 MPa

Question: And the “modulus of elasticity, pooled data” value ([2]; 25% GD)?
Answer: 33.45 B MPa

Question: What about the “Ultimate tensile strength, mean” value ([3]; 4 hours in 0.5% PA) of the same molecule?
Answer: 94.5 MPa

Question: What about the “Ultimate tensile strength, mean” value ([3]; 40 hours in 0.5% PA) of the same molecule?
Answer: 110.4 MPa

Question: What about the “Ultimate tensile strength, pooled data” value ([3]; pooled over 4 and 40 hours, 0.5% PA) of the same molecule?
Answer: 102.5 A MPa
